# Laboratory results published in US9296741B2, “Bromodomain inhibitors” (priority 2012, dated 2016).
# pEC50, pKi: −log10 of the molar value. Marks after values point to notes of the source that are not given here.
# Legend:
# [1] = system: SKM1 human cancer cell xenograft; assay: Xenograft efficacy study, SKM1; format: in vivo, mouse
# [2] = Rat liver microsome stability assay; format: in vitro ADME; conditions: rat liver microsomes (male Sprague-Dawley), 0.5 μM test compound, 0.25 mg/mL microsomal protein, pH 7.4, 37° C.; read-out: Stability in rat liver microsomes (t1/2 in minutes)
# [3] = system: LPS induced IL-6 production; assay: LPS (lipopolysaccharide) induced IL-6 production mouse assay; format: in vivo; conditions: Mus musculus, read-out: Inhibition of LPS induced IL-6 production in Mice, % inhibition at 3 mg/kg; 3 mg/kg oral, 1 h before LPS; serum IL-6 2 h after LPS
# [4] = system: MX-1 human breast cancer xenograft tumors; assay: Xenograft tumor growth inhibition assay, MX-1; format: in vivo, mouse; conditions: MX-1, PO, vehicle F
# [5] = system: breast cancer cell line MX-1; assay: MX-1 cell line proliferation assay; format: cell-based, human; conditions: Homo sapiens, MX1, 72 h; MX-1 cells, 3-day proliferation, Cell Titer Glo; read-out: Cellular proliferation: EC50
# [6] = system: OPM-2 human multiple myeloma xenograft tumors; assay: animal or person; conditions: Mus musculus, OPM-2, po, PO, vehicle A
# [7] = Human liver microsome stability assay; format: in vitro ADME; conditions: both sexes, human, microsomes, pH 7.4
# [8] = target: human BRD4 first bromodomain (BDI_K57-E168) (Homo sapiens (Human), UniProt O60885); assay: TR-FRET bromodomain binding assay, BRD4 first bromodomain
# [9] = Mouse liver microsome stability assay; format: in vitro ADME; conditions: male, CD1, mouse, microsomes, pH 7.4
# [10] = target: human BRD4 second bromodomain (BDII_E352-M457) (Homo sapiens (Human), UniProt O60885); assay: TR-FRET bromodomain binding assay, BRD4 second bromodomain
# [11] = system: rat collagen induced arthritis (rCIA) paw swelling; conditions: rCIA, dosed at 3 mg/kg (positive control) once daily day 10-17
# GEO = assay: Proliferation panel assay, Colon GEO; format: cell-based; conditions: read-out: Cellular Proliferation EC50
# NCI-H929 = assay: Proliferation panel assay, Multiple Myeloma NCI-H929; format: cell-based; conditions: Homo sapiens, read-out: Cellular Proliferation EC50
# H460 = assay: Proliferation panel assay, NSCLC H460; format: cell-based; conditions: Homo sapiens, NCI-H460, read-out: Cellular Proliferation EC50
# OPM2 = assay: Proliferation panel assay, Multiple Myeloma OPM2; format: cell-based; conditions: Homo sapiens, OPM-2, read-out: Cellular Proliferation EC50
# A-375 = assay: Proliferation panel assay, Melanoma A-375; format: cell-based; conditions: Homo sapiens, read-out: Cellular Proliferation EC50
# MDAMB453 = assay: Proliferation panel assay, Breast MDAMB453; format: cell-based; conditions: Homo sapiens, MDA-MB-453, read-out: Cellular Proliferation EC50
# Ramos = assay: Proliferation panel assay, NHL Ramos; format: cell-based; conditions: Homo sapiens, read-out: Cellular Proliferation EC50
# EJ-1 = assay: Proliferation panel assay, Bladder EJ-1; format: cell-based; conditions: EJ1, read-out: Cellular Proliferation EC50
# 786-0 = assay: Proliferation panel assay, RCC 786-0; format: cell-based; conditions: Homo sapiens, read-out: Cellular Proliferation EC50
# DLD-1 = assay: Proliferation panel assay, Colon DLD-1; format: cell-based; conditions: Homo sapiens, read-out: Cellular Proliferation EC50
# H1299 = assay: Proliferation panel assay, NSCLC H1299; format: cell-based; conditions: Homo sapiens, NCI-H1299, read-out: Cellular Proliferation EC50
# D54MG = assay: Proliferation panel assay, Glioblastoma D54MG; format: cell-based; conditions: read-out: Cellular Proliferation EC50
# H1975 = assay: Proliferation panel assay, NSCLC H1975; format: cell-based; conditions: Homo sapiens, NCI-H1975, read-out: Cellular Proliferation EC50
# RPMI-8226 = assay: Proliferation panel assay, Multiple Myeloma RPMI-8226; format: cell-based; conditions: Homo sapiens, read-out: Cellular Proliferation EC50
# PC3M = assay: Proliferation panel assay, Prostate PC3M; format: cell-based; conditions: Homo sapiens, PC-3M, read-out: Cellular Proliferation EC50
# SKM1 = assay: Proliferation panel assay, AML SKM1; format: cell-based; conditions: Homo sapiens, SKM-1, read-out: Cellular Proliferation EC50
# HepG2 = assay: Proliferation panel assay, Hepatocellular HepG2; format: cell-based; conditions: Homo sapiens, read-out: Cellular Proliferation EC50
# SK-LMS-1 = assay: Proliferation panel assay, Sarcoma SK-LMS-1; format: cell-based; conditions: Homo sapiens, read-out: Cellular Proliferation EC50
# BxPC3FP5 = assay: Proliferation panel assay, Pancreas BxPC3FP5; format: cell-based; conditions: read-out: Cellular Proliferation EC50
# HPAC = assay: Proliferation panel assay, Pancreas HPAC; format: cell-based; conditions: Homo sapiens, read-out: Cellular Proliferation EC50
# MDAMB231 = assay: Proliferation panel assay, Breast MDAMB231; format: cell-based; conditions: Homo sapiens, MDA-MB-231, read-out: Cellular Proliferation EC50
# Raji = assay: Proliferation panel assay, AML Raji; format: cell-based; conditions: Homo sapiens, Burkitt lymphoma, read-out: Cellular Proliferation EC50
# Ly18 = assay: Proliferation panel assay, NHL Ly18; format: cell-based; conditions: read-out: Cellular Proliferation EC50
# FaDu = assay: Proliferation panel assay, Head & Neck FaDu; format: cell-based; conditions: Homo sapiens, read-out: Cellular Proliferation EC50
# [12] = system: Ramos human cancer cell xenograft; assay: Xenograft efficacy study, Ramos; format: in vivo, mouse; conditions: 3.125 mg/kg/day, PO, BID (5 d on, 3 d off)x2, vehicle F
# [13] = system: MV4-11 human cancer cell xenograft; assay: Xenograft efficacy study, MV4-11; format: in vivo, mouse; conditions: 250 mg/kg/day, IP, BID Q7Dx3, vehicle C
# [14] = 6 mg/kg/day, IV, Q7Dx3, vehicle C
# [15] = 3 mg/kg/day, QD (5 on, 3 off, 5 on)
# [16] = 12.5 mg/kg/day, BID (5 on, 3 off)x2
# [17] = 25 mg/kg/day, BID (5 on, 3 off)x2
# [18] = 250 mg/kg/day, IP, BID Q7Dx3, vehicle C
smiles,measurement,setting,value
Nc1ncn([C@@H]2O[C@H](CO)[C@@H](O)[C@H]2O)c(=O)n1 [azacitidine],% TGD (tumor growth delay),[1]; [14],98* %
same,% TGI (tumor growth inhibition),[1]; [14],54** %
same,% removed from study,[1]; [14],0%
"Cn1cc(-c2cc(NS(C)(=O)=O)ccc2Oc2ccc(F)cc2F)c2cc[nH]c2c1=O [Example 27, N-[4-(2,4-difluorophenoxy)-3-(6-methyl-7-oxo-6,7-dihydro-1H-pyrrolo[2,3-c]pyridin-4-yl)phenyl]methanesulfonamide]",half-life at 0.5 μM,[2],> 120 min
same,inhibition in vivo at 3 mg/kg,[3],89%
same,% TGD (tumor growth delay),"[4]; 0.3 mg/kg/day, QD",35%
same,% TGI (tumor growth inhibition),"[4]; 0.3 mg/kg/day, QD",38** %
same,% removed from study,"[4]; 0.3 mg/kg/day, QD",0%
same,% TGD (tumor growth delay),"[4]; 1 mg/kg/day, QD",13%
same,% TGI (tumor growth inhibition),"[4]; 1 mg/kg/day, QD",57*** %
same,% removed from study,"[4]; 1 mg/kg/day, QD",0%
same,% TGI (tumor growth inhibition),[4]; [15],69*** %
same,% removed from study,[4]; [15],0%
same,pEC50,[5],7.50
same,change in vivo at 1 mg/kg,"[6]; read-out: % TGD (tumor growth delay), OPM-2, 1 mg/kg/day, QDx14",-2%
same,change in vivo at 3 mg/kg,"[6]; read-out: % TGD (tumor growth delay), OPM-2, 3 mg/kg/day, QD (5 on, 3 off, 5 on)",7%
same,inhibition in vivo at 1 mg/kg,"[6]; read-out: % TGI (tumor growth inhibition), OPM-2, 1 mg/kg/day, QDx14",59%
same,inhibition in vivo at 3 mg/kg,"[6]; read-out: % TGI (tumor growth inhibition), OPM-2, 3 mg/kg/day, QD (5 on, 3 off, 5 on)",67%
same,half-life at 0.5 μM,[7],32 min
same,pKi,[8],8.60
same,half-life at 0.5 μM,[9],59 min
same,pKi,[10],8.66
"C[C@]12C=CC(=O)C=C1CC[C@@H]1[C@@H]2[C@@H](O)C[C@@]2(C)[C@H]1CC[C@]2(O)C(=O)CO [Prednisolone, prednisolone, reference compound]","AUC of Paw Swelling, MEAN",[11],0.67** ml-day
"Cn1nc(-c2cc(NS(C)(=O)=O)ccc2Oc2ccccc2)c2cc(C(N)=O)[nH]c2c1=O [Example 78, 6-methyl-4-{5-[(methylsulfonyl)amino]-2-phenoxyphenyl}-7-oxo-6,7-dihydro-1H-pyrrolo[2,3-d]pyridazine-2-carboxamide]",pEC50,GEO,5.89
same,pEC50,NCI-H929,6.81
same,pEC50,H460,< 5.00
same,pEC50,OPM2,7.41
same,pEC50,A-375,5.44
same,pEC50,MDAMB453,6.62
same,pEC50,Ramos,6.49
same,pEC50,EJ-1,5.68
same,pEC50,786-0,6.05
same,pEC50,[5],6.40
same,pEC50,DLD-1,5.30
same,pEC50,H1299,5.59
same,pEC50,D54MG,5.64
same,pEC50,H1975,5.86
same,pEC50,RPMI-8226,5.85
same,pEC50,PC3M,5.09
same,pEC50,SKM1,7.24
same,pEC50,HepG2,6.05
same,pEC50,SK-LMS-1,6.03
same,pEC50,BxPC3FP5,6.13
same,pEC50,HPAC,5.92
same,pEC50,MDAMB231,5.91
same,pKi,[8],8.60
same,pEC50,Raji,7.08
same,pKi,[10],8.74
same,pEC50,Ly18,6.38
same,pEC50,FaDu,6.41
"Cn1cc(-c2cc(NS(C)(=O)=O)ccc2Oc2ccccc2)c2cc[nH]c2c1=O [Example 4, N-[3-(6-methyl-7-oxo-6,7-dihydro-1H-pyrrolo[2,3-c]pyridin-4-yl)-4-phenoxyphenyl]methanesulfonamide]",half-life at 0.5 μM,[2],4 min
same,pEC50,GEO,7.10
same,pEC50,NCI-H929,8.52
same,pEC50,H460,5.42
same,% TGD (tumor growth delay),[12],27* %
same,% TGI (tumor growth inhibition),[12],19%
same,% removed from study,[12],0%
same,inhibition in vivo at 3 mg/kg,[3],69%
same,pEC50,OPM2,9.00
same,pEC50,A-375,7.70
same,pEC50,MDAMB453,7.70
same,pEC50,Ramos,7.70
same,pEC50,EJ-1,6.69
same,pEC50,786-0,7.96
same,% TGD (tumor growth delay),[4]; [16],70*** %
same,% TGI (tumor growth inhibition),[4]; [16],73*** %
same,% removed from study,[4]; [16],10%
same,% TGD (tumor growth delay),[4]; [17],81*** %
same,% TGI (tumor growth inhibition),[4]; [17],77*** %
same,% removed from study,[4]; [17],30%
same,pEC50,[5],7.79
same,pEC50,DLD-1,6.70
same,pEC50,H1299,7.22
same,pEC50,D54MG,7.42
same,pEC50,H1975,7.70
same,pEC50,RPMI-8226,7.96
same,pEC50,PC3M,7.15
same,pEC50,SKM1,8.30
same,half-life at 0.5 μM,[7],59 min
same,pEC50,HepG2,7.13
same,pEC50,SK-LMS-1,7.60
same,pEC50,BxPC3FP5,8.00
same,pEC50,HPAC,7.30
same,pEC50,MDAMB231,6.66
same,pKi,[8],8.85
same,half-life at 0.5 μM,[9],57 min
same,pEC50,Raji,8.22
same,pKi,[10],8.70
same,pEC50,Ly18,7.70
same,pEC50,FaDu,7.70
Nc1ccn([C@@H]2O[C@H](CO)[C@@H](O)[C@@H]2O)c(=O)n1 [cytarabine],% TGD (tumor growth delay),[13],37*** %
same,% TGI (tumor growth inhibition),[13],47*** %
same,% removed from study,[13],0%
same,% TGD (tumor growth delay),[1]; [18],30%
same,% TGI (tumor growth inhibition),[1]; [18],20%
same,% removed from study,[1]; [18],0%
